Measured values published in ChEMBL document CHEMBL1153654, “Synthesis and potential anxiolytic activity of 4-amino-pyrido[2,3-b]indoles” (Bioorg Med Chem Lett, 1993).

Experiments:
[1] = system: Rattus norvegicus; assay: Tested for minimum effective dose required to cause motor in coordination in Geller-Seifter model in CFY rats (route of administration is peroral 30 min before testing); format: functional; conditions: po, read-out: MED
[2] = system: GABA-A receptor; anion channel; assay: Displacement of [35S]TBPS from GABA-A receptor complex at low umolar concentration (insoluble); format: protein-complex assay
[3] = system: GABA-A receptor; anion channel; assay: Displacement of [3H]flunitrazepam from GABA-A central benzodiazepine receptor of mouse brain (insoluble)
[4] = molecular target: GABA-A receptor; anion channel; assay: Displacement of [3H]flunitrazepam from GABA-A central benzodiazepine receptor of mouse brain
[5] = molecular target: GABA-A receptor; anion channel; assay: Displacement of [35S]TBPS from GABA-A receptor complex at low umolar concentration; format: protein-complex assay

SMILES | minimal effective dose [1] [mg/kg] | IC50 [2] | IC50 [3] | IC50 [4] [µM] | IC50 [5] [µM]
COC(=O)c1c(C)nc2c(c1N)c1cc(Cl)ccc1n2C | 50 | Insoluble | Insoluble |  | 
COC(=O)c1c(-c2ccccc2)nc2c(c1N)c1ccccc1n2C | 50 |  |  | > 30 | 11.2
COC(=O)c1c(C)nc2c(c1N)c1ccccc1n2C(=O)OC | 20 |  |  | > 30 | 9.5
COC(=O)c1c(C)[nH]c2nc3ccccc3c-2c1N | 5 | Insoluble | Insoluble |  | 
CCCOC(=O)c1c(C)nc2c(c1N)c1ccccc1n2C | 10 |  |  | > 100 | 2.2
COC(=O)c1c(C)nc2c(c1N)c1ccccc1n2C1CCCC1 | > 50 |  |  | > 100 | 80
Cc1nc2c(c(N)c1C(=O)O)c1ccccc1n2C | > 50 |  |  | > 100 | > 100
Cc1nc2c(c(N)c1CO)c1ccccc1n2C | > 50 |  |  | > 100 | > 100
COP(=O)(OC)c1c(C)nc2c(c1N)c1ccccc1n2C | > 20 |  |  | > 30 | > 30
CCOC(=O)c1c(C)nc2c(c1N)c1ccccc1n2C | 10 |  |  | > 100 | 4.6
C=CCOC(=O)c1c(C)nc2c(c1N)c1ccccc1n2C | 20 |  |  | > 100 | 3.8
Cc1nc2c(c(N)c1C(=O)OCc1ccccc1)c1ccccc1n2C | > 50 |  |  | > 30 | > 30
CCOC(=O)c1c(C)nc2c(c1N)c1ccccc1n2Cc1ccccc1 | > 50 | Insoluble | Insoluble |  | 
CNc1c(C(=O)OC)c(C)nc2c1c1ccccc1n2C | 20 |  |  | 82.3 | 17.1
CN1C(=O)CN=C(c2ccccc2)c2cc(Cl)ccc21 [DIAZEPAM] | 2.5 |  |  |  | 
Cc1[nH]c2nc3ccccc3c-2c(N)c1C(N)=O | > 50 |  |  | > 100 | > 100
COC(=O)c1c(C)nc2c(c1N)c1ccccc1n2C | 10 |  |  | > 100 | 14.6
CCn1c2ccccc2c2c(N)c(C(=O)OC)c(C)nc21 | 5 |  |  | > 100 | 5.9
